Laboratory results reported in patent US20250186541A1, “DLL3 TARGETING PEPTIDES AND CONSTRUCTS THEREOF” (MARIANA ONCOLOGY INC., priority 2023, published 2025).
Numbered stars: 1 amine (or outer) side, 2 acyl side, 3 side chain; on linkers, the order of the positions; unused ones are H or OH. Bridge positions count the residues as written; N and C are the ends. Square brackets hold non-standard residues; d marks the D form. Peptide text beside a SMILES is read from it. * marks the point of attachment. Ala(piperidin-4-yl) = O=C([C@H](CC1CCN([*:3])CC1)N[*:1])[*:2]; DOTA = O=C(O)CN1CCN(CC(=O)O)CCN(CC(=O)*)CCN(CC(=O)O)CC1; Phe(4-CF3) = N[C@@H](Cc1ccc(C(F)(F)F)cc1)C(=O)O; Phe(4-CH2NH2) = NCc1ccc(C[C@H](N)C(=O)O)cc1; Bip = N[C@@H](Cc1ccc(-c2ccccc2)cc1)C(=O)O; Phe(4-F) = N[C@@H](Cc1ccc(F)cc1)C(=O)O; 1Nal = N[C@@H](Cc1cccc2ccccc12)C(=O)O; 2Nal = N[C@@H](Cc1ccc2ccccc2c1)C(=O)O; oXylylene = c1ccc(C[*:2])c(C[*:1])c1; tBuAla = CC(C)(C)C[C@H](N)C(=O)O; AllylGly = C=CC[C@H](N)C(=O)O; Chg = N[C@H](C(=O)O)C1CCCCC1; αMeP = C[C@@]1(C(=O)O)CCCN1; hSer = N[C@@H](CCO)C(=O)O; Carboxymethyl = O=C(O)C*; Ahx = NCCCCCC(=O)O

What follows are molecules tested against T1, human DLL3 (Homo sapiens, UniProt Q9NYJ7) (assay: Affinity determination by Surface Plasmon Resonance (SPR), Biacore, 1:1 binding model). Settings: biotinylated human DLL3 on streptavidin chip, 25° C.; NB = nonbinding.
T1 construct: biotin (biotinylated)
T1 sequence (Q9NYJ7 27-618): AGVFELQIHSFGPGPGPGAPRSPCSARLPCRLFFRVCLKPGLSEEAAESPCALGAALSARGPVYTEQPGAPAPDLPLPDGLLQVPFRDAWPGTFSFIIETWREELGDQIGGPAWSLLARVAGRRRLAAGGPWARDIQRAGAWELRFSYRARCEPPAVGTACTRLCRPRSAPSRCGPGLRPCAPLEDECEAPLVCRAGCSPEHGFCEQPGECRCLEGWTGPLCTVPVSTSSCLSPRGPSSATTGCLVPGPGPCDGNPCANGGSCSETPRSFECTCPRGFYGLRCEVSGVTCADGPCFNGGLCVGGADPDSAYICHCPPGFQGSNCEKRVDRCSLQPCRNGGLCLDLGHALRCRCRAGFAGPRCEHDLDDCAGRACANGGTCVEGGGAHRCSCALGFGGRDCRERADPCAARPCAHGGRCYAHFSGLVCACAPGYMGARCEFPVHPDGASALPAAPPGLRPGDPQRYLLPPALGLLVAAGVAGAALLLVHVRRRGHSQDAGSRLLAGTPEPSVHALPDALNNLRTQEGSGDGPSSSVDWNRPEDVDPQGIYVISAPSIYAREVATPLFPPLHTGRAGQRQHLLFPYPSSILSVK
Summary of the method: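 SPR with biotinylated human DLL3 captured on a streptavidin chip, with a reference surface subtracted. Samples were injected at several concentrations at 100 μL/min in phosphate buffer with 137 mM NaCl, 2.7 mM KCl, 0.05% P20 and 2% DMSO. Kinetic and affinity constants came from a 1:1 binding fit.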

Row | Compound | Kd [nM] | SPR KD (nM)
1 | CC(=O)N[C@H](C(=O)N[C@@H](CO)C(=O)N[C@@H](CC(=O)O)C(=O)N[C@H]1CSSC[C@@H](C(=O)N2CCC[C@H]2C(=O)N[C@@H](CCCCNC(=O)CN2CCN(CC(=O)O)CCN(CC(=O)O)CCN(CC(=O)O)CC2)C(=O)N[C@@H](CC(=O)O)C(N)=O)NC(=O)[C@H](CC(N)=O)NC(=O)[C@H](Cc2c[nH]c3ccccc23)NC(=O)[C@H](CCC(N)=O)NC(=O)[C@H](CC(C)C)NC(=O)[C@H](Cc2c[nH]c3ccccc23)NC1=O)C1CCCCC1 [compound 102, Ac-(Chg)-S-D-C(3)-W-L-Q-W-N-C(3)-P-[L-Lys(DOTA)]-D-CONH2] (Ac-[Chg]SDCWLQWNCPK(DOTA)D-NH2; disulfide 4-10) | > 100 | –
2 | CSCC[C@H](NC(C)=O)C(=O)N[C@@H](CO)C(=O)N[C@@H](CC(=O)O)C(=O)N[C@H]1CSSC[C@@H](C(=O)N2CCC[C@H]2C(=O)N[C@@H](Cc2ccccc2)C(=O)N[C@H](C)C(N)=O)NC(=O)[C@H](CC(N)=O)NC(=O)[C@H](Cc2c[nH]c3ccccc23)NC(=O)[C@H](CCC(N)=O)NC(=O)[C@H](CC(C)C)NC(=O)[C@H](Cc2c[nH]c3ccccc23)NC1=O [compound 18, Ac-M-S-D-C(3)-W-L-Q-W-N-C(3)-P-F-(D-Ala)-CONH2] (Ac-MSDCWLQWNCPF[dA]-NH2; disulfide 4-10) | > 100 | –
3 | CC(=O)N[C@H](C(=O)N[C@@H](CO)C(=O)N[C@@H](CC(=O)O)C(=O)N[C@H]1CSCc2ccccc2CSC[C@@H](C(=O)N2CCC[C@@]2(C)C(=O)N[C@@H](Cc2ccccc2)C(=O)N[C@@H](CC(=O)O)C(=O)N[C@H](CCCCNC(=O)CN2CCN(CC(=O)O)CCN(CC(=O)O)CCN(CC(=O)O)CC2)C(N)=O)NC(=O)[C@H](CC(N)=O)NC(=O)[C@H](Cc2c[nH]c3ccccc23)NC(=O)[C@H](CCC(N)=O)NC(=O)[C@H](CC(C)C)NC(=O)[C@H](Cc2cccc3ccccc23)NC1=O)C1CCCCC1 [compound 143, Ac-(Chg)-S-D-C(oDBX)-(1Nal)-L-Q-W-N-C(2)-(aMe-P)-F-D-D-Lys(DOTA)-CONH2] (Ac-[Chg]SDC[1Nal]LQWNC[αMeP]FD[dK](DOTA)-NH2; linker 4-10 via oXylylene) | – | slow kon
4 | CC(C)C[C@@H]1NC(=O)[C@H](Cc2c[nH]c3ccccc23)NC(=O)[C@@H](NC(=O)[C@H](CC(=O)O)NC(=O)[C@H](CO)NC(=O)CCCCCNC(=O)CN2CCN(CC(=O)O)CCN(CC(=O)O)CCN(CC(=O)O)CC2)CSSC[C@@H](C(=O)N2CCC[C@H]2C(=O)N[C@@H](Cc2ccc(C(F)(F)F)cc2)C(=O)N[C@@H](CC(=O)O)C(N)=O)NC(=O)[C@H](CC(N)=O)NC(=O)[C@H](Cc2c[nH]c3ccccc23)NC(=O)[C@H](CCC(N)=O)NC1=O [compound 34, DOTA-Ahx-S-D-C(3)-W-L-Q-W-N-C(3)-P-(4CF3-F)-D-CONH2] ({DOTA-Ahx}-SDCWLQWNCP[Phe(4-CF3)]D-NH2; disulfide 3-9) | > 300 | –
5 | CC(=O)N[C@@H](CC1CCNCC1)C(=O)N[C@@H](CO)C(=O)N[C@@H](CC(=O)O)C(=O)N[C@H]1C/C=C\C[C@@H](C(=O)N2CCC[C@@]2(C)C(=O)N[C@@H](Cc2ccccc2)C(=O)N[C@@H](CC(=O)O)C(N)=O)NC(=O)[C@H](CC(N)=O)NC(=O)[C@H](Cc2ccc3ccccc3c2)NC(=O)[C@H](Cc2ccc(CNC(=O)CN3CCN(CC(=O)O)CCN(CC(=O)O)CCN(CC(=O)O)CC3)cc2)NC(=O)[C@H](CC(C)(C)C)NC(=O)[C@H](Cc2cccc3ccccc23)NC1=O [compound 201, Ac-[3-(4-piperidinyl)-Ala]-S-D-AllyG(4)-(1Nal)-(t-Bu-Ala)-[PAF(DOTA)]-(2Nal)-N-AllyG(4)-(aMe-P)-F-D-CONH2] (Ac-[Ala(piperidin-4-yl)]SD[AllylGly][1Nal][tBuAla][Phe(4-CH2NH2)](DOTA)[2Nal]N[AllylGly][αMeP]FD-NH2; staple (Z) 4-10) | 14.6 | –

Now from value to molecule:

Row | Kd [nM] | SPR KD (nM) | Compound
6 | > 300 | – | CC(=O)N[C@H](C(=O)N[C@@H](CO)C(=O)N[C@@H](CC(=O)O)C(=O)N[C@H]1CSSC[C@@H](C(=O)N[C@@H](CCCCNC(=O)CN2CCN(CC(=O)O)CCN(CC(=O)O)CCN(CC(=O)O)CC2)C(=O)N[C@@H](Cc2ccccc2)C(=O)N[C@@H](CC(=O)O)C(N)=O)NC(=O)[C@H](CC(N)=O)NC(=O)[C@H](Cc2c[nH]c3ccccc23)NC(=O)[C@H](CCC(N)=O)NC(=O)[C@H](CC(C)C)NC(=O)[C@H](Cc2c[nH]c3ccccc23)NC1=O)C1CCCCC1 [compound 101, Ac-(Chg)-S-D-C(3)-W-L-Q-W-N-C(3)-[L-Lys(DOTA)]-F-D-CONH2] (Ac-[Chg]SDCWLQWNCK(DOTA)FD-NH2; disulfide 4-10)
7 | > 100 | – | CC(=O)N[C@H](C(=O)N[C@@H](CO)C(=O)N[C@@H](CC(=O)O)C(=O)N[C@H]1CSSC[C@@H](C(=O)N2CCC[C@H]2C(=O)N[C@@H](Cc2ccccc2)C(=O)N[C@@H](CC(=O)O)C(N)=O)NC(=O)[C@H](CC(N)=O)NC(=O)[C@H](CCCCNC(=O)CN2CCN(CC(=O)O)CCN(CC(=O)O)CCN(CC(=O)O)CC2)NC(=O)[C@H](CCC(N)=O)NC(=O)[C@H](CC(C)C)NC(=O)[C@H](Cc2c[nH]c3ccccc23)NC1=O)C1CCCCC1 [compound 99, Ac-(Chg)-S-D-C(3)-W-L-Q-[L-Lys(DOTA)]-N-C(3)-P-F-D-CONH2] (Ac-[Chg]SDCWLQK(DOTA)NCPFD-NH2; disulfide 4-10)
8 | > 300 | – | CC(C)C[C@@H]1NC(=O)[C@H](Cc2c[nH]c3ccccc23)NC(=O)[C@@H](NC(=O)[C@H](CC(=O)O)NC(=O)[C@H](CO)NC(=O)CCCCCNC(=O)CN2CCN(CC(=O)O)CCN(CC(=O)O)CCN(CC(=O)O)CC2)CSSC[C@@H](C(=O)N2CCC[C@H]2C(=O)N[C@@H](Cc2ccc(F)cc2)C(=O)N[C@@H](CC(=O)O)C(N)=O)NC(=O)[C@H](CC(N)=O)NC(=O)[C@H](Cc2c[nH]c3ccccc23)NC(=O)[C@H](CCC(N)=O)NC1=O [compound 33, DOTA-Ahx-S-D-C(3)-W-L-Q-W-N-C(3)-P-(4Fluoro-F)-D-CONH2] ({DOTA-Ahx}-SDCWLQWNCP[Phe(4-F)]D-NH2; disulfide 3-9)
9 | > 300 | – | CSCC[C@H](NC(C)=O)C(=O)N[C@@H](CO)C(=O)N[C@@H](CC(=O)O)C(=O)N[C@H]1CSSC[C@@H](C(=O)N2CCC[C@H]2C(=O)N[C@@H](Cc2ccccc2)C(=O)N[C@@H](CCO)C(=O)N[C@H](CCCCNC(=O)CN2CCN(CC(=O)O)CCN(CC(=O)O)CCN(CC(=O)O)CC2)C(N)=O)NC(=O)[C@H](CC(N)=O)NC(=O)[C@H](Cc2c[nH]c3ccccc23)NC(=O)[C@H](CCC(N)=O)NC(=O)[C@H](CC(C)C)NC(=O)[C@H](Cc2c[nH]c3ccccc23)NC1=O [compound 54, Ac-M-S-D-C(3)-W-L-Q-W-N-C(3)-P-F-(hSer)-D-Lys(DOTA)-CONH2] (Ac-MSDCWLQWNCPF[hSer][dK](DOTA)-NH2; disulfide 4-10)
10 | > 300 | – | CSCC[C@H](NC(C)=O)C(=O)N[C@@H](CO)C(=O)N[C@@H](CC(=O)O)C(=O)N[C@H]1CSSC[C@@H](C(=O)N2CCC[C@H]2C(=O)N[C@@H](Cc2ccccc2)C(=O)N[C@@H](CC(=O)O)C(=O)N[C@H](CCCCNC(=O)CN2CCN(CC(=O)O)CCN(CC(=O)O)CCN(CC(=O)O)CC2)C(N)=O)NC(=O)[C@H](CC(N)=O)NC(=O)[C@H](Cc2c[nH]c3ccccc23)NC(=O)[C@H](CCC(N)=O)NC(=O)[C@H](CC(C)C)NC(=O)[C@H](Cc2ccc(-c3ccccc3)cc2)NC1=O [compound 55, Ac-M-S-D-C(3)-(BIP)-L-Q-W-N-C(3)-P-F-D-D-Lys(DOTA)-CONH2] (Ac-MSDC[Bip]LQWNCPFD[dK](DOTA)-NH2; disulfide 4-10)
11 | 11 | – | CC(C)C[C@@H]1NC(=O)[C@H](Cc2c[nH]c3ccccc23)NC(=O)[C@@H](NC(=O)[C@H](CC(=O)O)NC(=O)[C@H](CO)NC(=O)CCCCCNC(=O)CN2CCN(CC(=O)O)CCN(CC(=O)O)CCN(CC(=O)O)CC2)CSSC[C@@H](C(=O)N2CCC[C@H]2C(=O)N[C@@H](Cc2ccccc2)C(=O)N[C@@H](CC(=O)O)C(N)=O)NC(=O)[C@H](CC(N)=O)NC(=O)[C@H](Cc2c[nH]c3ccccc23)NC(=O)[C@H](CCC(N)=O)NC1=O [compound 72, DOTA-Ahx-S-D-C(3)-W-L-Q-W-N-C(3)-P-F-D-CONH2] ({DOTA-Ahx}-SDCWLQWNCPFD-NH2; disulfide 3-9)
12 | > 100 | – | CC(C)C[C@@H]1NC(=O)[C@H](Cc2c[nH]c3ccccc23)NC(=O)[C@@H](NC(=O)[C@H](CC(=O)O)NC(=O)[C@H](CO)NC(=O)CCCCCNC(=O)CN2CCN(CC(=O)O)CCN(CC(=O)O)CCN(CC(=O)O)CC2)CSSC[C@@H](C(=O)N2CCC[C@H]2C(=O)N[C@@H](Cc2ccc(OCC(=O)O)cc2)C(=O)N[C@@H](CC(=O)O)C(N)=O)NC(=O)[C@H](CC(N)=O)NC(=O)[C@H](Cc2c[nH]c3ccccc23)NC(=O)[C@H](CCC(N)=O)NC1=O [compound 37, DOTA-Ahx-S-D-C(3)-W-L-Q-W-N-C(3)-P-(4-CMF)-D-CONH2] ({DOTA-Ahx}-SDCWLQWNCPY(Carboxymethyl)D-NH2; disulfide 3-9)
